# Laboratory results from patent EP0293130A2, “Dimers of parathyroid hormone antagonists” (Merck & Co., Inc., priority 1987, dated 1988).
# Tested on: adenylate cyclase
# Details: adenylate cyclase assay
# Description: In the adenylate cyclase assay of Caporale, L. et al, Peptides: Structure and Function, Proc. 9th Am. Pept. Symp. p.
substance,measurement,setting,value
"([Tyr³⁴,Cys³⁹]PTH(21-39)NH₂)₂",increase in antagonist potency over its monomeric derivative,dimer versus its monomeric derivative,25 fold
same,IC50,"read-out: IC₅₀ (antagonist potency), antagonism of PTH",20 µM
